The target of assay [1] is Human α2δ-1 subunit of Cav2.2 calcium channel (Homo sapiens, UniProt P54289). The experiment in a line: biochemical. Format: binding.
For a further assay, the target named is Human μ-opioid receptor (Homo sapiens, UniProt P35372). Put plainly: biochemical. Format: binding.

Read-outs that look alike come from different tables or passages of the source. Some results are limits rather than exact numbers.

Chain of Human μ-opioid receptor (P35372 whole entry): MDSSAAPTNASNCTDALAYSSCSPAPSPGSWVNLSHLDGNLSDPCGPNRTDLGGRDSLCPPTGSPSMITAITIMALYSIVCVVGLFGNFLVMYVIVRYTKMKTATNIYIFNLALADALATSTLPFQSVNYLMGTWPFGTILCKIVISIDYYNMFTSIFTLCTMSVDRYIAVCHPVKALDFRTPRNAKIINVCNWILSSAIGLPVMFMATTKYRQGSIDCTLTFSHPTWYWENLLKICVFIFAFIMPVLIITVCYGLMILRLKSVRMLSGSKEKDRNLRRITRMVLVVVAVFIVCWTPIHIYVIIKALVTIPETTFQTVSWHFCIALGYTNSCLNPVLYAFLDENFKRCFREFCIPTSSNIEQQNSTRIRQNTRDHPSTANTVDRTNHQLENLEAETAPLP
Chain of Human α2δ-1 subunit of Cav2.2 calcium channel (P54289 25-1103): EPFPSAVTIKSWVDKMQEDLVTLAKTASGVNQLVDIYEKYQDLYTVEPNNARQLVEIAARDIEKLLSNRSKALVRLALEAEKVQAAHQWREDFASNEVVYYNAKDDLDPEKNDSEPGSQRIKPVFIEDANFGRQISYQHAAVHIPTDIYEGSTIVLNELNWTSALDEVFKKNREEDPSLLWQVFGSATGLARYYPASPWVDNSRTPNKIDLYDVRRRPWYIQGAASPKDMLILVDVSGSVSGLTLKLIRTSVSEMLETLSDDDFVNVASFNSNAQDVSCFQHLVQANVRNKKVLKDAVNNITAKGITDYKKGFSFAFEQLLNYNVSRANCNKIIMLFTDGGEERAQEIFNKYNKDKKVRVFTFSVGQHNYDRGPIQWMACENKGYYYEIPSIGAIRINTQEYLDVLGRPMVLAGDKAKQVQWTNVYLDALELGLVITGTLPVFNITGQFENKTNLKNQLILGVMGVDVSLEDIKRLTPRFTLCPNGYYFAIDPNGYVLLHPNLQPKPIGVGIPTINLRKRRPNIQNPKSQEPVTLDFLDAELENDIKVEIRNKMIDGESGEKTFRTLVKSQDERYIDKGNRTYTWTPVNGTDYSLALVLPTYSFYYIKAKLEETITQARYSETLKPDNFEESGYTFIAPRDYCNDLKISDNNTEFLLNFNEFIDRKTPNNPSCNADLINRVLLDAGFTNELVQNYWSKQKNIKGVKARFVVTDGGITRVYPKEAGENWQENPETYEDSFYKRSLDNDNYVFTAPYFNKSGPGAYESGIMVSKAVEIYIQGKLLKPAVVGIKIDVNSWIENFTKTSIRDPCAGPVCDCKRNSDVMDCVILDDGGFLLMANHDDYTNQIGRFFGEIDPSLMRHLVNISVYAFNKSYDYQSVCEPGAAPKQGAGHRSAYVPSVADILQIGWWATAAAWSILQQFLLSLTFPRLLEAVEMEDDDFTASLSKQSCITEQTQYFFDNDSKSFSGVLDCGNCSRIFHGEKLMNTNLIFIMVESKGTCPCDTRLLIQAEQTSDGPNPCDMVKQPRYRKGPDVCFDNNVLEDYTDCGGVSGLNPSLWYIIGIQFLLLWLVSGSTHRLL

For `CCCC(c1nc2ccccc2c(=O)n1CCNC)N1C[C@@H](C)N[C@@H](C)C1` (stereo partly drawn) [Example 127, 2-(1-((3S,5R)-3,5-Dimethylpiperazin-1-yl)butyl)-3-(2-(methylamino)ethyl)quinazolin-4(3H)-one], the values for the Ki (in assay [1]; at Human μ-opioid receptor (read-out: μ-binding)) were 500 to 5000 nM and greater than 500 nM, respectively.
Turning to `CCC[C@@H](c1nc2cc(O[C@H](CNC)c3ccccc3)ccc2c(=O)n1C)N1C[C@@H](C)N[C@@H](C)C1` [Example 168, 2-((S)-1-((3S,5R)-3,5-dimethylpiperazin-1-yl)butyl)-3-methyl-7-((S)-2-(methylamino)-1-phenylethoxy)quinazolin-4(3H)-one], the Ki in assay [1] was 500 to 5000 nM; at Human μ-opioid receptor it was greater than 500 nM.
In the same order, the values of `CCC[C@H](c1nc2ccccc2c(=O)n1CC)N1C[C@@H](C)N[C@@H](C)C1` [Example 34, 2-((R)-1-((3S,5R)-3,5-dimethylpiperazin-1-yl)butyl)-3-ethylquinazolin-4(3H)-one] are less than 500 nM and greater than 500 nM.
As to `CCCC(c1nc2ccc(Br)c(F)c2c(=O)n1CC)N1C[C@@H](C)N[C@@H](C)C1` (stereo partly drawn) [Example 22, 6-bromo-2-(1-((3S,5R)-3,5-dimethylpiperazin-1-yl)butyl)-3-ethyl-5-fluoroquinazolin-4(3H)-one], the Ki in assay [1] was less than 500 nM; on Human μ-opioid receptor, greater than 500 nM.
In the same order, the values of `CCC[C@H](c1nc2c(F)cc(Br)cc2c(=O)n1CC)N1CCN[C@@H](C)C1` [Example 51, 6-Bromo-3-ethyl-8-fluoro-2-((R)-1-((S)-3-methylpiperazin-1-yl)butyl)quinazolin-4(3H)-one] are less than 500 nM and 100 to 500 nM.
For the compound `CCCC(c1nc2cc(NCC)ccc2c(=O)n1CC)N1C[C@@H](C)N[C@@H](C)C1` (stereo partly drawn) [Example 25, 2-(1-((3S,5R)-3,5-dimethylpiperazin-1-yl)butyl)-3-ethyl-7-(ethylamino)quinazolin-4(3H)-one], the Ki in assay [1] was less than 500 nM; on Human μ-opioid receptor, greater than 500 nM.
Consider `CCCC(c1nc2ccc(N3CCCC3)cc2c(=O)n1CC)N1C[C@@H](C)N[C@@H](C)C1` (stereo partly drawn) [Example 138, 2-(1-((3S,5R)-3,5-dimethylpiperazin-1-yl)butyl)-3-ethyl-6-(pyrrolidin-1-yl)quinazolin-4(3H)-one], for which the Ki in assay [1] was less than 500 nM; on Human μ-opioid receptor, greater than 500 nM.
In the same order, the values of `CCCC(c1nc2ccc(C)cc2c(=O)n1CCOC)N1C[C@@H](C)N[C@@H](C)C1` (stereo partly drawn) [Example 119, 2-(1-((3S,5R)-3,5-dimethylpiperazin-1-yl)butyl)-3-(2-methoxyethyl)-6-methylquinazolin-4(3H)-one] are less than 500 nM and greater than 500 nM.
With `CCCC(c1nc2ccc(Br)cc2c(=O)n1CCC)N1CCNCC1` (stereo not drawn) [Example 82, 6-bromo-2-(1-(piperazin-1-yl)butyl)-3-propylquinazolin-4(3H)-one], the figures for the Ki (in assay [1]; on Human μ-opioid receptor) were less than 500 nM and 100 to 500 nM, respectively.
Consider `CCC[C@H](c1nc2ccc(N3C[C@@H](C)OC4(CCN(CCc5ccccc5)CC4)C3)cc2c(=O)n1CC)N1C[C@@H](C)N[C@@H](C)C1` [Example 157, 2-((R)-1-((3S,5R)-3,5-dimethylpiperazin-1-yl)butyl)-3-ethyl-6-((R)-2-methyl-9-phenethyl-1-oxa-4,9-diazaspiro[5.5]undecan-4-yl)quinazolin-4(3H)-one], for which the Ki in assay [1] (binding to α2δ-1 subunit of voltage-gated calcium channels expressed as Ki, + also Ki>5000 nM or inhibition between 1% and 50%, read-out: α2δ-1 binding) is 500 to 5000 nM; at Human μ-opioid receptor it was greater than 500 nM.
As for `CCCC(c1nc2ccc(Br)cc2c(=O)n1CCC(=O)OCC)N1C[C@@H](C)N[C@@H](C)C1` (stereo partly drawn) [Example 122, ethyl 3-(6-bromo-2-(1-((3S,5R)-3,5-dimethylpiperazin-1-yl)butyl)-4-oxoquinazolin-3(4H)-yl)propanoate], the Ki in assay [1] (read-out: α2δ-1 binding) is 500 to 5000 nM; on Human μ-opioid receptor (read-out: μ-binding), greater than 500 nM.
On to `CCC[C@H](c1nc2ccc(NCC[C@@]3(c4ccccn4)CCOC4(CCCC4)C3)cc2c(=O)n1CC)N1C[C@@H](C)N[C@@H](C)C1` [Example 160, 2-((R)-1-((3S,5R)-3,5-dimethylpiperazin-1-yl)butyl)-3-ethyl-6-((2-((R)-9-(pyridin-2-yl)-6-oxaspiro[4.5]decan-9-yl)ethyl)amino)quinazolin-4(3H)-one], for which the values for the Ki (in assay [1]; on Human μ-opioid receptor) were less than 500 nM and greater than 500 nM, respectively.
In the same order, the values of `CCC[C@@H](c1nc2ccncc2c(=O)n1CC)N1CCN[C@H](C)C1` [Example 65, 3-ethyl-2-((S)-1-((R)-3-methylpiperazin-1-yl)butyl)pyrido[4,3-d]pyrimidin-4(3H)-one] are greater than 5000 nM and greater than 500 nM.
`CCCC(c1nc2ccc(CN(C)CC(C)C)cc2c(=O)n1CC)N1C[C@@H](C)N[C@@H](C)C1` (stereo partly drawn) [Example 184, 2-(1-((3S,5R)-3,5-dimethylpiperazin-1-yl)butyl)-3-ethyl-6-((isobutyl(methyl)amino)methyl)quinazolin-4(3H)-one]: the Ki in assay [1] was less than 500 nM; at Human μ-opioid receptor, greater than 500 nM.
For the compound `CCCC(c1nc2cc(C(=O)O)ccc2c(=O)n1C)N1C[C@@H](C)N[C@@H](C)C1` (stereo partly drawn) [Example 178, 2-(1-((3S,5R)-3,5-Dimethylpiperazin-1-yl)butyl)-3-methyl-4-oxo-3,4-dihydroquinazoline-7-carboxylic acid], the Ki in assay [1] (read-out: α2δ-1 binding) was 500 to 5000 nM; at Human μ-opioid receptor (read-out: μ-binding), greater than 500 nM.
Take `CCCC(c1nc2ccc(Br)cc2c(=O)n1CC)C1CCNCC1` (stereo not drawn) [Example 187, 6-Bromo-3-ethyl-2-(1-(piperidin-4-yl)butyl)quinazolin-4(3H)-one]: the Ki in assay [1] (read-out: α2δ-1 binding) is 500 to 5000 nM; at Human μ-opioid receptor (read-out: μ-binding) it was greater than 500 nM.
`CCCC(c1nc2ccc(N3CC=C(c4ccccc4O)CC3)cc2c(=O)n1CC)N1C[C@@H](C)N[C@@H](C)C1` (stereo partly drawn) [Example 148, 2-(1-((3S,5R)-3,5-dimethylpiperazin-1-yl)butyl)-3-ethyl-6-(4-(2-hydroxyphenyl)-5,6-dihydropyridin-1(2H)-yl)quinazolin-4(3H)-one]: the Ki is less than 500 nM in assay [1] and greater than 500 nM on Human μ-opioid receptor.
In the same order, the values of `CCC[C@@H](c1nc2ccc(Br)cc2c(=O)n1CC)N1CCN[C@H](CO)C1` [Example 59, 6-bromo-3-ethyl-2-((S)-1-((S)-3-(hydroxymethyl)piperazin-1-yl)butyl)quinazolin-4(3H)-one] are greater than 5000 nM and greater than 500 nM.
In the same order, the values of `CCCC(c1nc2ccc(O)cc2c(=O)n1CC)N1C[C@@H](C)N[C@@H](C)C1` (stereo partly drawn) [Example 12, 2-(1-((3S,5R)-3,5-dimethylpiperazin-1-yl)butyl)-3-ethyl-6-hydroxyquinazolin-4(3H)-one] are less than 500 nM and greater than 500 nM.
In the same order, the values of `CCCC(c1nc2cc(N3CCCC3)ccc2c(=O)n1CC)N1C[C@@H](C)N[C@@H](C)C1` (stereo partly drawn) [Example 137, 2-(1-((3S,5R)-3,5-Dimethylpiperazin-1-yl)butyl)-3-ethyl-7-(pyrrolidin-1-yl)quinazolin-4(3H)-one] are less than 500 nM and greater than 500 nM.
Consider `CCCC(c1nc2cc(OC)ccc2c(=O)n1CC)N1C[C@@H](C)N[C@@H](C)C1` (stereo partly drawn) [Example 6, 2-(1-((3S,5R)-3,5-dimethylpiperazin-1-yl)butyl)-3-ethyl-7-methoxyquinazolin-4(3H)-one], for which the Ki in assay [1] was less than 500 nM; at Human μ-opioid receptor, greater than 500 nM.
On to `CCCC(c1nc2cc(O)ccc2c(=O)n1C)N1C[C@@H](C)N[C@@H](C)C1` (stereo partly drawn) [Example 10, 2-(1-((3S,5R)-3,5-dimethylpiperazin-1-yl)butyl)-7-hydroxy-3-methylquinazolin-4(3H)-one], for which the Ki in assay [1] was less than 500 nM; at Human μ-opioid receptor, greater than 500 nM.
For the compound `CCC[C@@H](c1nc2ccc(NCC[C@@]3(c4ccccn4)CCOC4(CCCC4)C3)cc2c(=O)n1CC)N1C[C@@H](C)N[C@@H](C)C1` [Example 158, 2-((S)-1-((3S,5R)-3,5-Dimethylpiperazin-1-yl)butyl)-3-ethyl-6-((2-((R)-9-(pyridin-2-yl)-6-oxaspiro[4.5]decan-9-yl)ethyl)amino)quinazolin-4(3H)-one], the Ki is less than 500 nM in assay [1] and greater than 500 nM at Human μ-opioid receptor.
In the same order, the values of `CCC[C@H](c1nc2cnc(C(F)(F)F)cc2c(=O)n1CC)N1CCN[C@@H](C)C1` [Example 234, 3-ethyl-2-((R)-1-((S)-3-methylpiperazin-1-yl)butyl)-6-(trifluoromethyl)pyrido[3,4-d]pyrimidin-4(3H)-one] are less than 500 nM and greater than 500 nM.
In the same order, the values of `CCCC(c1nc2cc(C(=O)NCc3ccccc3)ccc2c(=O)n1CC)N1C[C@@H](C)N[C@@H](C)C1` (stereo partly drawn) [Example 180, N-Benzyl-2-(1-((3S,5R)-3,5-dimethylpiperazin-1-yl)butyl)-3-ethyl-4-oxo-3,4-dihydroquinazoline-7-carboxamide] are less than 500 nM and greater than 500 nM.
In the same order, the values of `CCC[C@H](c1nc2nc(C(F)(F)F)ccc2c(=O)n1CC)N1CCN[C@@H](C)C1` [Example 78, 3-ethyl-2-((R)-1-((S)-3-methylpiperazin-1-yl)butyl)-7-(trifluoromethyl)pyrido[2,3-d]pyrimidin-4(3H)-one] are less than 500 nM and greater than 500 nM.
For the compound `CCC[C@@H](c1nc2c(F)cc(OC)c(Br)c2c(=O)n1CC)N1CCNCC1` [Example 39, (S)-5-Bromo-3-ethyl-8-fluoro-6-methoxy-2-(1-(piperazin-1-yl)butyl)quinazolin-4(3H)-one], the Ki in assay [1] (read-out: α2δ-1 binding) was greater than 5000 nM; on Human μ-opioid receptor (read-out: μ-binding), greater than 500 nM.
`CCC[C@@H](c1nc2ccc(Br)cc2c(=O)n1CC)[C@@H]1CCNCC1(F)F` [Example 197, 6-bromo-2-((R)-1-((S)-3,3-difluoropiperidin-4-yl)butyl)-3-ethylquinazolin-4(3H)-one]: the Ki in assay [1] is 500 to 5000 nM; on Human μ-opioid receptor it was greater than 500 nM.
In the same order, the values of `CCC[C@@H](c1nc2ccc(Cl)cc2c(=O)n1CC)N1CCN[C@H](C)C1` [Example 102, 6-chloro-3-ethyl-2-((S)-1-((R)-3-methylpiperazin-1-yl)butyl)quinazolin-4(3H)-one] are greater than 5000 nM and greater than 500 nM.
In the case of `CCCC(c1nc2ccc(N3CCC(N)CC3)cc2c(=O)n1CC)N1C[C@@H](C)N[C@@H](C)C1` (stereo partly drawn) [Example 141, 6-(4-aminopiperidin-1-yl)-2-(1-((3S,5R)-3,5-dimethylpiperazin-1-yl)butyl)-3-ethylquinazolin-4(3H)-one], the Ki in assay [1] was less than 500 nM; at Human μ-opioid receptor, greater than 500 nM.

The record behind these values is patent US20220002314A1 (priority 2018, published 2022).
